Measured values taken from patent publication US20060110456A1, “Method for biocidal and/or biostatic treatment and compositions therefor” (NATIONAL UNIVERSITY OF SINGAPORE, priority 2004, published 2006).
“Also recorded” adds a separate entry of the source. Counter-ions that a name gives are not always drawn.

How the values were obtained:
barnacle cyprids = test: Cyprid settlement on plastic and glass substrata (IMD, ZPX); type: in vivo, Balanus amphitrite
Description: Assays were then carried out on plastic and glass substrata. […] The wells were then rinsed with clean water, and cyprids added in clean seawater.
A follow up experiment was carried out to examine the effect of ZPX on barnacle settlement when the experiment is carried out on different substrata. ZPX test solutions were prepared as described above from the tablet. The following test conditions were applied: • (1) Assay was carried out with ZPX test solutions in the 24 well tissue culture plates (as before); • (2) ZPX test solution at 25 ug ml^−1 were applied to the 24 well tissue culture plates and left in the well for 10 minutes. The solution is then discarded and the well was rinsed three times, each time with 2 ml of seawater. Clean seawater was added into each well. • (3) The assay with ZPX test solutions was carried out in glass scintillation bottles.
Cyprids were obtained and settlement experiments were carried out as described earlier. After 24 hours, the number of cyprids which had settled/attached was counted.

[1] = tested on: marine bacteria (ten strains); test: Bacteriostatic vs bacteriocidal activity from growth assay: absorbance and CFU counts; type: cell-based, marine bacteria isolated from Singapore fouling communities; settings: 50 μg ml^−1; for Growth assay: 24-hour change in absorbance for ten strains: strains 1, 4, 9, 14, 18, 20, 27, 28, 29, 30
Description: Bacteria strains (1, 4, 9, 14, 18, 20, 27, 28, 29, 30) representing a variety of morphological types were used.
For each well, […] of a 100 μg ml^−1 drug solution in sterile distilled water, was added to 45 μl of Marine Broth. Controls for growth consisted of 50 μl of sterile deionized water and 45 μl of marine broth. All wells used for growth studies were prepared in triplicate and inoculated with 5 μl of the bacterial suspension. Blanks consisting of the above volumes of pharmaceutical with Marine Broth and distilled water, were prepared in triplicate and inoculated with 5 μl of sterile seawater. Immediately after adding all the components to the wells for the growth studies, 10 μl was removed and used to inoculate plates of Marine Agar to determine colony-forming units (CFU). The absorbance (A600) of each well was read in the plate reader immediately.
The inoculated plates of Marine Agar were incubated overnight on a rotary shaker (150 rpm) at 30° C. inside a moistened airtight container. After incubation, the absorbance was read again and another 10 μl was removed and used to inoculate Marine Agar plates to determine CFU.
The difference in absorbance over 24 hours for each bacterial strain versus controls and treatments were plotted in FIGS. 3 to 6 for each of the four drugs. The data was analyzed using 1-tailed t-test.

[2] = tested on: bacterial biofilms (strains 9, 14, 20, 27 and 28); test: Effect of ZPX and ZFN on adhesion and removal of biofilms; type: cell-based, marine bacteria isolated from Singapore fouling communities; settings: NTC; for Effect on established bacterial biofilms: 25 ug ml^−1; for Biofilm present after treatment (added with bacteria or after biofilm established): 50 ug ml^−1
Description: The bacteria were grown, washed and their concentrations were adjusted as described above. The bacterial suspension (75 μl) of strains 9, 14, 20, 27 and 28 in SSW and 50 μl of SDI water were placed into 96 well polystyrene microplates (Falcon 351172). Blank wells were filled with 75 μl of SSW and 50 μl of SDI. Three wells were used for blanks, each control and treatment.
The cells were allowed to attach to the wells for 2 h. Afterwards, unattached bacteria and liquid in the wells were removed by aspiration and wells were washed with 200 μl of SSW twice using a microplate washer as described above. After washing, 75 μl of SSW were added and 50 μl of SDI to the control (bacterial suspension and SDI as above) and blank (75 μl of SSW and 50 μl of SDI) wells.
After 2 h, the wells were washed with SSW, washed twice with SDI and stained with crystal violet as described above. After 10 min, the stain was removed, wells were washed twice with SDI, and crystal violet was released from the attached bacteria by adding 200 μl of sodium desoxycholate. After 10 min, absorbance (A590) of each well was read using a plate reader (Tecan Sunrise, Switzerland). Comparisons were made between wells where attached bacteria were exposed to SDI and wells where they were exposed to the pharmaceuticals.

| Structure (SMILES) | Change in CFU count after 24 hours ([1]; strain 1 (Rhodovulum)) | Inhibition of bacterial growth ([1]; strain 1 (Rhodovulum)) | Result (bacteriostatic / bacteriocidal / no effect) ([1]; strain 1 (Rhodovulum)) | Inhibition of bacterial growth ([1]; strain 4 (Bacillus)) | Result (bacteriostatic / bacteriocidal / no effect) ([1]; strain 4 (Bacillus)) | Inhibition of bacterial growth ([1]; strain 9 (Bacillus)) | Result (bacteriostatic / bacteriocidal / no effect) ([1]; strain 9 (Bacillus)) | Change in CFU count after 24 hours ([1]; strain 14 (Vibrio)) | Inhibition of bacterial growth ([1]; strain 14 (Vibrio)) | Result (bacteriostatic / bacteriocidal / no effect) ([1]; strain 14 (Vibrio)) | Inhibition of bacterial growth ([1]; strain 18 (Microbacterium)) | Result (bacteriostatic / bacteriocidal / no effect) ([1]; strain 18 (Microbacterium)) | Inhibition of bacterial growth ([1]; strain 20) | Result (bacteriostatic / bacteriocidal / no effect) ([1]; strain 20) | Inhibition of bacterial growth ([1]; strain 27) | Result (bacteriostatic / bacteriocidal / no effect) ([1]; strain 27) | Inhibition of bacterial growth ([1]; strain 28) | Result (bacteriostatic / bacteriocidal / no effect) ([1]; strain 28) | Inhibition of bacterial growth ([1]; strain 29) | Result (bacteriostatic / bacteriocidal / no effect) ([1]; strain 29) | further results |
| --- | --- | --- | --- | --- | --- | --- | --- | --- | --- | --- | --- | --- | --- | --- | --- | --- | --- | --- | --- | --- | --- |
| CN(C)C(=O)C(CCN1CCC(O)(c2ccc(Cl)cc2)CC1)(c1ccccc1)c1ccccc1 [IMD, Loperamide hydrochloride] | – | – | – | – | – | – | – | – | – | – | – | – | – | – | – | – | – | – | – | – | Effect of IMD on settlement of cyprids: drug form, solvent, substratum (barnacle cyprids; tablet vs pure compound, DMSO vs DI stock, glass vs plastic, treated and rinsed wells, hydrochloride): no difference in activity between the solutions prepared from tablet and the pure compound; also recorded: no difference between the DMSO and DI prepared stock solutions; also recorded: no difference between glass and plastic; also recorded: no significant IMD residue present on the surfaces |
| CN1CCN(CCCN2c3ccccc3Sc3ccc(Cl)cc32)CC1 [PCZ, prochlorperazine maleate] | 0 | 0 | no effect | +++ (+++ denotes little or no growth, p < 0.001) | bacteriocidal | +++ (+++ denotes little or no growth, p < 0.001) | bacteriocidal | 0 | 0 | no effect | +++ (+++ denotes little or no growth, p < 0.001) | bacteriostatic | +++ (+++ denotes little or no growth, p < 0.001) | bacteriostatic | +++ (+++ denotes little or no growth, p < 0.001) | bacteriocidal | +++ (+++ denotes little or no growth, p < 0.001) | bacteriostatic | +++ (+++ denotes little or no growth, p < 0.001) | bacteriocidal | Killing of bacteria (decrease in absorbance and CFU counts) [1]: strain 14 was not killed; Growth assay: 24-hour change in absorbance for ten strains [1]: only strain numbers 1 and 14 grew in the presence of PCZ; Inhibition of bacterial growth ([1]; strain 30): +++ (+++ denotes little or no growth, p < 0.001); Result (bacteriostatic / bacteriocidal / no effect) ([1]; strain 30): bacteriostatic |
| CNCCC(Oc1ccc(C(F)(F)F)cc1)c1ccccc1 (stereo not shown) [PZC, fluoxetine hydrochloride] | 0 | 0 | no effect | +++ (+++ denotes little or no growth, p < 0.001) | bacteriostatic | +++ (+++ denotes little or no growth, p < 0.001) | bacteriostatic | 0 | 0 | no effect | +++ (+++ denotes little or no growth, p < 0.001) | bacteriostatic | +++ (+++ denotes little or no growth, p < 0.001) | bacteriostatic | +++ (+++ denotes little or no growth, p < 0.001) | bacteriocidal | +++ (+++ denotes little or no growth, p < 0.001) | bacteriostatic | +++ (+++ denotes little or no growth, p < 0.001) | bacteriostatic | Inhibition of bacterial growth ([1]; strain 30): +++ (+++ denotes little or no growth, p < 0.001); Result (bacteriostatic / bacteriocidal / no effect) ([1]; strain 30): bacteriostatic |
| CN1CCN(CCCN2c3ccccc3Sc3ccc(C(F)(F)F)cc32)CC1 [TFZ, Trifluoperazine hydrochloride] | 0 | 0 | no effect | +++ (+++ denotes little or no growth, p < 0.001) | bacteriocidal | +++ (+++ denotes little or no growth, p < 0.001) | bacteriocidal | 0 | 0 | no effect | +++ (+++ denotes little or no growth, p < 0.001) | bacteriostatic | +++ (+++ denotes little or no growth, p < 0.001) | bacteriostatic | +++ (+++ denotes little or no growth, p < 0.001) | bacteriocidal | +++ (+++ denotes little or no growth, p < 0.001) | bacteriostatic | +++ (+++ denotes little or no growth, p < 0.001) | bacteriocidal | Killing of bacteria (decrease in absorbance and CFU counts) [1]: strain 14 was not killed; Growth assay: 24-hour change in absorbance for ten strains [1]: only strain numbers 1 and 14 grew in the presence of TFZ; Inhibition of bacterial growth ([1]; strain 30): +++ (+++ denotes little or no growth, p < 0.001); Result (bacteriostatic / bacteriocidal / no effect) ([1]; strain 30): bacteriostatic |
| Cc1nccn1CC1CCc2c(c3ccccc3n2C)C1=O (stereo not shown) [ZFN, ondansetron hydrochloride] | – | – | – | – | – | – | – | – | – | – | – | – | – | – | – | – | – | – | – | – | Effect on established bacterial biofilms [2]: no significant effect; Biofilm present after treatment (added with bacteria or after biofilm established) [2]: Except for strain 28, little or no biofilm was present after treatment |
| Cc1cc2c(s1)Nc1ccccc1N=C2N1CCN(C)CC1 [ZPX, olanzapine] | – | – | – | – | – | – | – | – | – | – | – | – | – | – | – | – | – | – | – | – | Effect of ZPX on cyprid settlement on different substrata (barnacle cyprids; 24 well tissue culture plates, rinsed ZPX-treated wells (25 ug ml^−1, 10 minutes), glass bottles, 24 hours): no significant difference in settlement between plastic and glass; also recorded: After rinsing, the effect of ZPX in plastic was removed; also recorded: prevents the settlement of barnacle cyprids; Effect on established bacterial biofilms [2]: no significant effect; Biofilm present after treatment (added with bacteria or after biofilm established) [2]: Except for strain 28, little or no biofilm was present after treatment |
